# Source: the supplement of paper PMC10307832
# Tests used:
# Assay in all cases: relative viability (nuclei count vs DMSO), 5 days (fraction); higher = more cells survive
# [1] = compound: CC1=C(C(=O)N2C=CSC2=N1)CCN3CCC(=C(C4=CC=CC=C4)C5=CC=C(C=C5)F)CC3 + CS(=O)(=O)CCNCc1ccc(-c2ccc3ncnc(Nc4ccc(OCc5cccc(F)c5)c(Cl)c4)c3c2)o1 [Lapatinib] (partner 2 µM)
# Outline: (§1)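 Relative viability is defined as nuclei in treated wells over nuclei in vehicle wells. Duplicate plates were run and medians reported. Lung cancer cell lines in 1536-well plates were dosed by pin tool one day after seeding, with one drug or with a fixed anchor-drug dose plus five library-drug doses (not always all listed) in √10 steps, and nuclei were counted after 5 days.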
# [2] = compound: CC1=C(C(=O)N2C=CSC2=N1)CCN3CCC(=C(C4=CC=CC=C4)C5=CC=C(C=C5)F)CC3 + NC(=O)Nc1cc(-c2cccc(F)c2)sc1C(=O)N[C@H]1CCCNC1 [AZD7762] (partner 0.2 µM)
# Outline: as §1
# [3] = compound: CC1=C(C(=O)N2C=CSC2=N1)CCN3CCC(=C(C4=CC=CC=C4)C5=CC=C(C=C5)F)CC3 + Nc1ncn([C@H]2C[C@H](O)[C@@H](CO)O2)c(=O)n1 [Decitabine] (partner 2 µM)
# Outline: as §1
# [4] = compound: CC1=C(C(=O)N2C=CSC2=N1)CCN3CCC(=C(C4=CC=CC=C4)C5=CC=C(C=C5)F)CC3 + CC(C)C[C@H](NC(=O)[C@H](Cc1ccccc1)NC(=O)c1cnccn1)B(O)O [Bortezomib] (partner 0.002 µM)
# Outline: as §1
Cell Line,relative viability ([1]; first compound 0.08 µM),relative viability ([1]; first compound 0.253 µM),relative viability ([1]; first compound 0.8 µM),relative viability ([1]; first compound 2.53 µM),relative viability ([1]; first compound 8 µM),relative viability ([2]; first compound 0.08 µM),relative viability ([2]; first compound 0.253 µM),relative viability ([2]; first compound 0.8 µM),relative viability ([2]; first compound 2.53 µM),relative viability ([2]; first compound 8 µM),relative viability ([3]; first compound 0.08 µM),relative viability ([3]; first compound 0.253 µM),relative viability ([3]; first compound 0.8 µM),relative viability ([3]; first compound 2.53 µM),relative viability ([3]; first compound 8 µM),relative viability ([4]; first compound 0.08 µM),relative viability ([4]; first compound 0.253 µM),relative viability ([4]; first compound 0.8 µM),relative viability ([4]; first compound 2.53 µM),relative viability ([4]; first compound 8 µM)
HCC-15,0.961,0.667,0.885,1.02,0.73,1.18,1.43,1.28,1.15,1.09,0.831,0.651,0.601,0.642,0.604,1.05,1.04,1.09,0.964,0.786
HCC-44,1.07,0.83,1,1.07,0.787,1.04,1.04,1.08,1.17,1.06,1.03,1.09,0.995,1.02,0.985,0.926,0.769,0.896,1.06,0.856
HCC-78,0.851,0.784,0.731,0.779,0.51,0.691,0.71,0.58,0.662,0.567,0.769,0.803,0.765,0.683,0.536,0.458,0.616,0.552,0.447,0.405
HCC-366,,0.778,1.02,1.71,0.412,0.302,0.317,0.25,0.23,0.211,0.389,0.318,0.324,0.394,0.243,,1.14,1.18,1.04,0.308
HCC-827,0.198,0.189,0.201,0.196,0.188,0.16,0.214,0.236,0.224,0.209,0.285,0.335,0.308,0.33,0.322,0.975,0.843,1.01,1.11,0.987
HOP-62,0.785,1.03,1.2,0.862,0.482,0.445,0.51,0.522,0.534,0.323,0.2,0.193,0.204,0.213,0.162,0.731,0.628,1.03,0.922,0.323
LC-2-ad,1.01,1.08,0.88,1.2,0.861,0.777,0.725,0.866,0.966,0.613,0.866,0.903,0.875,0.794,0.642,1.05,0.799,1.03,1.22,0.827
LCLC-97TM1,0.7,1,1.08,1.03,0.677,0.348,0.246,0.288,0.285,0.228,0.234,0.252,0.216,0.253,0.181,,0.484,0.249,0.408,0.597
LOU-NH91,0.774,0.809,0.765,0.814,0.803,0.763,0.714,0.833,0.84,0.691,0.796,0.832,0.834,0.926,0.792,0.508,0.507,0.483,0.481,0.55
LU99A,0.894,1.04,0.998,1.06,0.835,0.345,0.367,0.403,0.398,0.294,1.18,0.988,0.763,0.989,0.907,1.23,1.11,1.05,1.14,0.904
LXF-289,0.98,0.953,0.926,0.907,0.844,0.789,1.22,1.14,1.13,0.515,0.381,0.43,0.406,0.426,0.349,1.08,1.13,1.05,0.97,0.933
NCI-H23,0.932,0.829,1.04,1.35,0.621,0.279,0.269,0.234,0.248,0.229,0.355,0.308,0.332,0.323,0.119,0.705,1.08,1.1,0.974,0.545
NCI-H322M,0.581,0.613,0.612,0.554,0.611,0.601,0.606,0.563,0.516,0.543,0.719,0.781,0.688,0.814,0.767,1.3,1.28,1.24,1.35,1.09
NCI-H460,0.629,1.32,1.06,0.93,0.496,0.769,0.604,0.712,0.6,0.482,0.581,0.445,0.555,0.572,0.157,0.718,0.799,1.3,,0.184
NCI-H596,1.05,1.17,1.06,0.989,1.06,1.18,0.913,1.2,1.08,0.965,0.908,0.939,1.06,1.01,0.761,1.09,1.02,0.903,0.887,0.989
